In patent US20230234983A1, “SQUALAMINE CRYSTALLINE POLYMORPHS” (Enterin, Inc., priority 2022, published 2023):
“Also recorded” adds a separate entry of the source.

Assays:
Type in all cases: physicochemical
[1] = Physical stability upon exposure to AAC (40° C./75% RH) for 2 days, remeasured by HT-XRPD; details: for solid form conversion upon exposure to AAC: HT-XRPD
Description: (§1) The solvent equilibration experiments were incubated in the Crystal16™ parallel crystallization reactor at 5, 25 and 50° C. for 3 days. Up on completion of the ageing time, the solids were separated from the liquid phases, dried at ambient conditions and under vacuum, and analyzed by HT-XRPD. Afterwards, all solids were exposed to AAC (40° C./75% RH) for 2 days and remeasured by HT-XRPD. The liquids were analyzed by Karl Fisher to estimate the water content. The experimental details and results are reported in Table 9, Table 10 and Table 11.
(§2) Upon completion of the equilibration time, the solids were dried at ambient conditions and under vacuum (5 mbar/50° C./overnight) and analyzed by HT-XRPD. Afterwards, all solids were exposed to AAC (40° C./75% RH) for 2 days and remeasured by HT-XRPD.
as §2, with “Table 11: Experimental details and results of equilibration experiments performed at 50° C. for 1 week. Upon” for “Upon”, “mbar/RT/overnight)” for “mbar/50° C./overnight)”

[2] = Physical stability upon drying under vacuum, HT-XRPD
Description: as §1, §2
Thermocycling experiments were started by preparing suspensions of Form B1 in the selected anhydrous solvents. The suspensions were subjected to a temperature profile between 50 and 5° C., followed by aging at 25° C. for 72 hours. Upon completion of the aging time, the solids were separated from the liquid phases, dried at ambient conditions and under vacuum, and measured by HT-XRPD. When solutions were recovered, those were left to evaporate at ambient conditions.

[3] = Physical stability of Form B1 at three storage conditions (Example 10)
Description: Solid samples of Form B 1 was incubated at three different conditions to test physical stability: 80° C., closed vial, 24 hours; 60° C./29% RH, open vial, 48 hours; and 40° C./75% RH, open vial, 48 hours. The solids recovered after the stability studies were analyzed by HIR-XRPD, TGMS, and DSC.

[4] = Investigation under variable RH levels by DVS and XRPD
Description: The powder data were collected on D8 Advance diffractometer using Cu Kα1 radiation (1.54056 Å) with germanium monochromator at 30° C. using the SYCOS H-HOT hot humid chamber produced by Ansyco GmbH. The data were collected in the Bragg-Brentano geometry (locked coupled) from 8 to 35θ 2θ on the flat sample holder (without rotation) on solid state LynxEye detector with 0.018θ per step with 1 sec/step scan speed. After reaching demanded humidity the sample was relaxed for 5 minutes before measurement. The sample was optionally measured with 2 seconds per step and in the last measurement at RH 000 the relaxation time was elongated to 30 min.

[5] = sample recovered from thermocycling in ethyl acetate

Q: With `CC(C)[C@@H](CC[C@@H](C)[C@H]1CCC2C3C(CC[C@@]21C)[C@@]1(C)CC[C@H](NCCCNCCCCN)C[C@@H]1C[C@H]3O)OS(=O)(=O)O.O=P(O)(O)O` (stereo in doubt) [Form D, squalamine phosphate] as the molecule, how does the “physical stability upon exposure to AAC” value [1] read?
A: physically unstable

Q: And the “solid form conversion upon exposure to AAC” value [1]?
A: converted to a mixture containing Form A1 and an unknown phase

Q: Which “solid form conversion in vacuum-dried solids of the hydrate screen” value ([2]; vacuum-dried, in some cases) does the source give for `CC(C)[C@@H](CC[C@@H](C)[C@H]1CC[C@H]2[C@@H]3[C@H](O)C[C@H]4C[C@@H](NCCCNCCCCN)CC[C@]4(C)[C@H]3CC[C@]12C)OS(=O)(=O)O.O=P(O)(O)O` [Form A1, squalamine phosphate] here?
A: converted to the mixed hydrate/solvate Form A2, or to the low-degree hydrates B1 and B2

Q: With `CC(C)[C@@H](CC[C@@H](C)[C@H]1CC[C@H]2[C@@H]3[C@H](O)C[C@H]4C[C@@H](NCCCNCCCCN)CC[C@]4(C)[C@H]3CC[C@]12C)OS(=O)(=O)O.O=P(O)(O)O` [Form A2, squalamine phosphate] as the molecule, how does the “physical stability upon exposure to AAC” value [1] read?
A: physically unstable

Q: What about the “solid form conversion upon exposure to AAC” value ([1]; listed as A2) of the same molecule?
A: converted to Form A1

Q: For `CC(C)[C@@H](CC[C@@H](C)[C@H]1CC[C@H]2[C@@H]3[C@H](O)C[C@H]4C[C@@H](NCCCNCCCCN)CC[C@]4(C)[C@H]3CC[C@]12C)OS(=O)(=O)O.O=P(O)(O)O` [Form B1, squalamine phosphate], which “RH at which the form already absorbs water, converting to Form A1” value [3] is on record?
A: 29 % RH

Q: What about the “Mass loss (%)” value ([3]; TGMS of solid recovered after 40° C./75% RH, open vial 48 h) of the same molecule?
A: 8.9%

Q: And the “Mass loss (%)” value ([3]; TGMS of solid recovered after 60° C./29% RH, open vial 48 h)?
A: 9.0%

Q: And the “Mass loss (%)” value ([3]; TGMS of solid recovered after 80° C., closed vial, 24 h)?
A: 1.8%

Q: And the “solid form conversion upon exposure to AAC” value ([1]; listed as B1)?
A: converted to Form A1

Q: For `CC(C)[C@@H](CC[C@@H](C)[C@H]1CC[C@H]2[C@@H]3[C@H](O)C[C@H]4C[C@@H](NCCCNCCCCN)CC[C@]4(C)[C@H]3CC[C@]12C)OS(=O)(=O)O.O=P(O)(O)O` [Form B2, squalamine phosphate], which “solid form conversion upon exposure to AAC” value ([1]; listed as B2) is on record?
A: converted to Form A1; also recorded: conversion to Form A1

Q: What about the “physical stability upon drying” value [2, 5] of the same molecule?
A: not physically stable

Q: What about the “solid form conversion upon drying” value [2, 5] of the same molecule?
A: converted to a mixture of Forms A1 and D

Q: What about the “physical stability upon drying” value ([2]; samples recovered from 1-propanol and THE) of the same molecule?
A: stable

Q: Which “behaviour on release of water at low RH levels or at high temperature” value [4] does the source give for `CC(C)[C@@H](CC[C@@H](C)[C@H]1CC[C@H]2[C@@H]3[C@H](O)C[C@H]4C[C@@H](NCCCNCCCCN)CC[C@]4(C)[C@H]3CC[C@]12C)OS(=O)(=O)O.O=P(O)(O)O` [Form C, squalamine phosphate] here?
A: converting to Form A1

Q: Which “solid form conversion upon exposure to AAC” value ([1]; listed as E) does the source give for `CC(C)[C@@H](CC[C@@H](C)[C@H]1CC[C@H]2[C@@H]3[C@H](O)C[C@H]4C[C@@H](NCCCNCCCCN)CC[C@]4(C)[C@H]3CC[C@]12C)OS(=O)(=O)O.O=P(O)(O)O` [Form E, squalamine phosphate] here?
A: converted to Form A1

Q: And the “solid form conversion upon drying under vacuum” value ([2]; 5 mbar/50° C./overnight, solid from thermocycling in methanol)?
A: converted to Form F; also recorded: conversion to a poorly crystalline phase, classified as Form F

Q: And the “Physical Stability” value ([2]; upon drying at 50° C.)?
A: Unstable upon

Q: For `CC(C)[C@@H](CC[C@@H](C)[C@H]1CC[C@H]2[C@@H]3[C@H](O)C[C@H]4C[C@@H](NCCCNCCCCN)CC[C@]4(C)[C@H]3CC[C@]12C)OS(=O)(=O)O.O=P(O)(O)O` [Form F, squalamine phosphate], which “solid form conversion upon exposure to AAC” value ([1]; listed as F) is on record?
A: converted to Form A1
